The text below walks through data of ChEMBL document CHEMBL5042533, “Structural Optimization and Structure-Activity Relationship Studies of 6,6-Dimethyl-4-(phenylamino)-6H-pyrimido[5,4-b][1,4]oxazin-7(8H)-one Derivatives as A New Class of Potent Inhibitors of Pan-Trk and Their Drug-Resistant Mutants” (J Med Chem, 2022).

pIC50: −log10 of the molar value.

Series [1] deals with High affinity nerve growth factor receptor (Homo sapiens, UniProt P04629). As to the kind of experiment: Inhibition of wild type TrkA (unknown origin) using poly(Glu: Tyr) as substrate preincubated for 15 mins followed by substrate addition and further incubated for 30 mins in presence of [gamma-33P]ATP by scintillation counting method.
Chain of High affinity nerve growth factor receptor (P04629 whole entry): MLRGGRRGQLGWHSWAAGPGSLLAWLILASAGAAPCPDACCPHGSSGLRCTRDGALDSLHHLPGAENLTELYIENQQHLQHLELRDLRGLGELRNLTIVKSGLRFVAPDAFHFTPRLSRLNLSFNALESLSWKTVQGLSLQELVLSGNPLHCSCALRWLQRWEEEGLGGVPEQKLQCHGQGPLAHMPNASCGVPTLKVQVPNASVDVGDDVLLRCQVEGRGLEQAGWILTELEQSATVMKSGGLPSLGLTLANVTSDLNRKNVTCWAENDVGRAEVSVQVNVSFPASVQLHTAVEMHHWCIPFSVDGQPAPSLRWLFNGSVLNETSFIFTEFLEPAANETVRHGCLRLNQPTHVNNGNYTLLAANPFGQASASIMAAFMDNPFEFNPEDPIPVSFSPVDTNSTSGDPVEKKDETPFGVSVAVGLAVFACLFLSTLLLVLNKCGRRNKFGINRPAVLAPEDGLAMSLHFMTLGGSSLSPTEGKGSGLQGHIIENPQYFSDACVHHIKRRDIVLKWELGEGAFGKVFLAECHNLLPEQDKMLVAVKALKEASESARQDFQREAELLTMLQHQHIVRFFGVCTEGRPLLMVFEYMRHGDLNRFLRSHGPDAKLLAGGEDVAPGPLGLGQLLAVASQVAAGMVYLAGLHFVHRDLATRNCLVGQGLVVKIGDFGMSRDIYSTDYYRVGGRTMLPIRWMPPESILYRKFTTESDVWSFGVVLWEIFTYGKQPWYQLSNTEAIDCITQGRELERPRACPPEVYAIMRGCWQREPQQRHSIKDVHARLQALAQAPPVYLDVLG
The target of series [2] is BDNF/NT-3 growth factors receptor (Homo sapiens, UniProt Q16620). As to the kind of experiment: Inhibition of wild type TrkB (unknown origin) using poly(Glu: Tyr) as substrate preincubated for 15 mins followed by substrate addition and further incubated for 30 mins in presence of [gamma-33P]ATP by scintillation counting method.
Chain of BDNF/NT-3 growth factors receptor (Q16620 whole entry): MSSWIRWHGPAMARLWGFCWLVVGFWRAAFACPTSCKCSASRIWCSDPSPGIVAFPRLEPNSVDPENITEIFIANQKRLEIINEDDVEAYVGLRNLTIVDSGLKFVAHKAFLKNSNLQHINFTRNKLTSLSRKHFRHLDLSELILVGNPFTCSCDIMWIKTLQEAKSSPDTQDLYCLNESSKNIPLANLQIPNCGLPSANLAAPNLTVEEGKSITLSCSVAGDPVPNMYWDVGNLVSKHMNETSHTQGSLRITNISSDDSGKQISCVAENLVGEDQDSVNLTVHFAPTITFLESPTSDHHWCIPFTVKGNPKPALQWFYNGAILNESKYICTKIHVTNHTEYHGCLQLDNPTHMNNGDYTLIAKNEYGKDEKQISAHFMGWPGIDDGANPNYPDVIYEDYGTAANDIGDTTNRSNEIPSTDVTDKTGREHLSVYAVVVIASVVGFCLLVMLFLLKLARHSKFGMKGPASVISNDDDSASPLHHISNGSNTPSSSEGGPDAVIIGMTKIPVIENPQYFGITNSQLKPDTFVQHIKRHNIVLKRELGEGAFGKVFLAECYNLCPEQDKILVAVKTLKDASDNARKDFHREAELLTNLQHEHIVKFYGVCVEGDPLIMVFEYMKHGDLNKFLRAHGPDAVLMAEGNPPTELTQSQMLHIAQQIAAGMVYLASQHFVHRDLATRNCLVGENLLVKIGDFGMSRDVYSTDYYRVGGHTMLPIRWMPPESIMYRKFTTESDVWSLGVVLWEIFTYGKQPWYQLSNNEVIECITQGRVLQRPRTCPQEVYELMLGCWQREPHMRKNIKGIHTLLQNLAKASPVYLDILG
In series [3] the test system is BaF3. As to the kind of experiment: cells. The note with it: Mus musculus.
Description: Cytotoxicity against mouse BaF3 cells harboring TEL fused TrkC G613R mutant assessed as inhibition of cell growth by MTT assay
Series [4] deals with BaF3. As to the kind of experiment: Cytotoxicity against mouse BaF3 cells expressing LMNA fused TrkA F589L mutant assessed as inhibition of cell growth incubated for 3 days by CCK-8 assay. The note with it: BaF3, 72 h. Format: functional, cell-based. (In general: Formazan colour is commonly taken as a measure of viable cells.)
The subject of series [5] is BaF3. As to the kind of experiment: cells. Particulars: Mus musculus, BaF3, 72 h.
Description: Cytotoxicity against mouse BaF3 cells expressing TEL fused TrkA assessed as inhibition of cell growth incubated for 3 days by CCK-8 assay
Series [6] deals with BaF3. As to the kind of experiment: cells. The note with it: Mus musculus, BaF3, 72 h. The source holds these as a separate data set.
Description: Cytotoxicity against mouse BaF3 cells expressing CD74 fused TrkA assessed as inhibition of cell growth incubated for 3 days by CCK-8 assay
In series [7] the test system is BaF3. As to the kind of experiment: cells. Particulars: Mus musculus, BaF3, 72 h. The source holds these as a separate data set.
Description: Cytotoxicity against mouse BaF3 cells expressing TEL fused TrkC assessed as inhibition of cell growth incubated for 3 days by CCK-8 assay
The subject of series [8] is BaF3. As to the kind of experiment: cells. The note with it: Mus musculus, BaF3, 72 h. The source holds these as a separate data set.
In series [9] the test system is BaF3. As to the kind of experiment: cells. The note with it: Mus musculus, BaF3, 72 h. This is another data set of the same source.
Series [10] deals with BaF3. As to the kind of experiment: cells. Particulars: Mus musculus, BaF3, 72 h. The source holds these as a separate data set.
Description: Cytotoxicity against mouse BaF3 cells expressing LMNA fused TrkA G667S mutant assessed as inhibition of cell growth incubated for 3 days by CCK-8 assay
In series [11] the test system is BaF3. As to the kind of experiment: cells. Particulars: Mus musculus, BaF3, 72 h. This is another data set of the same source.
Description: Cytotoxicity against mouse BaF3 cells expressing TEL fused TrkC G623R assessed as inhibition of cell growth incubated for 3 days by CCK-8 assay
The test system of series [12] is BaF3. As to the kind of experiment: cells. Particulars: Mus musculus, BaF3, 72 h. This is another data set of the same source.
Description: Cytotoxicity against mouse BaF3 cells expressing TEL fused TrkC G696C assessed as inhibition of cell growth incubated for 3 days by CCK-8 assay
Another series can be described thus: cells. Particulars: Homo sapiens, KM12-Luc, 72 h.
A short description of the next series: in vitro. The note with it: mouse, BaF3 cells.

Description for in vitro: Cytotoxicity against mouse BaF3 assessed as inhibition of cell growth incubated for 3 days by CCK-8 assay

Turning to `Cc1cc(NC(=O)Nc2cc(C(C)(C)C)nn2-c2ccccc2F)ccc1Nc1ncnc2c1OC(C)(C)C(=O)N2`, the results for the pIC50 (in series [1]; in series [2]; with BaF3 [3]) were 7.70, 7.82 and 5.49, respectively.
The matching figures for `Cc1cc(NC(=O)Nc2cc(C(C)(C)C)nn2-c2c(F)c(F)c(F)c(F)c2F)ccc1Nc1ncnc2c1OC(C)(C)C(=O)N2`: 7.28, 7.38 and 6.13.
The matching figures for `CC1(C)Oc2c(ncnc2Nc2ccc(NC(=O)Nc3cc(C(C)(C)C)nn3-c3ccccc3)c(C(F)(F)F)c2)NC1=O`: 6.83, 6.74 and 5.41.
Regarding `CC1(C)Oc2c(ncnc2Nc2ccc(NC(=O)Nc3cccc(C(F)(F)F)c3)cc2)NC1=O`, the pIC50 (commonly the IC50 on a negative log10 scale, so that one unit is a factor of ten) is 7.77 in series [2] and 5.40 with BaF3 [3].
As for `Cc1ccc(-n2nc(C(C)(C)C)cc2NC(=O)Nc2ccc(Nc3ncnc4c3OC(C)(C)C(=O)N4)c(C)c2)cc1`, the pIC50 in series [1] is 7.66; in [2], 7.74; in the series with BaF3 [4] it was 8.40; in the series on BaF3 [3], 7.24; in the series on BaF3 [5], 9.00; with BaF3 [6], 8.30. For the same compound, the negative logarithm of the IC50 (pIC50) in the series with BaF3 [7] was 7.89; in the series with BaF3 [8], 7.51; with BaF3 [9], 9.00; in the series on BaF3 [10], 8.40; in the series on BaF3 [11], 7.24; in the series on BaF3 [12], 8.70. For the same compound, the pIC50 in “cells” was 8.22. For the same compound, in the series “in vitro”, the IC50 (usually the concentration that gives 50% inhibition) at 3 days is 2990 nM.
Consider `CC1(C)Oc2c(ncnc2Nc2ccc(NC(=O)Nc3ccc(Cl)c(C(F)(F)F)c3)cc2)NC1=O`, for which the pIC50 in series [1] is 6.68; in series [2], 6.42; in the series on BaF3 [3], 5.87.
Turning to `CC(C)n1nc(C(C)(C)C)cc1NC(=O)Nc1ccc(Nc2ncnc3c2OC(C)(C)C(=O)N3)cc1`, the pIC50 (in series [1]; in [2]; in the series on BaF3 [3]) was < 5.00 each time.
As for `CC1(C)Oc2c(ncnc2Nc2ccc(NC(=O)Nc3cc(C(F)(F)F)cc(C(F)(F)F)c3)cc2)NC1=O`, the pIC50 in series [1] is 7.00; in series [2] it was 6.69; in the series with BaF3 [3] it was 5.29.
Consider `CC1(C)Oc2c(ncnc2Nc2cccc(NC(=O)Nc3cc(C(C)(C)C)nn3-c3ccccc3)c2)NC1=O`, for which the pIC50 in series [2] was 6.47; in the series on BaF3 [3] it was < 5.00.
Regarding `CC1(C)Oc2c(ncnc2Nc2ccc(NC(=O)Nc3cc(C(C)(C)C)no3)cc2)NC1=O`, the pIC50 was 6.95 in series [1], 7.32 in series [2] and 5.19 in the series on BaF3 [3].
Consider `C=CCNC(=O)Nc1ccc(Nc2ncnc3c2OC(C)(C)C(=O)N3)cc1`, for which the pIC50 in series [1] and in series [2] was < 5.00 each time.
Consider `Cc1ccc(NC(=O)Nc2ccc(Nc3ncnc4c3OC(C)(C)C(=O)N4)cc2)cc1`, for which the pIC50 in [1] and in series [2] was < 5.00 each time.
`CC1(C)Oc2c(ncnc2Nc2ccc(NC(=O)NC34C[C@H]5C[C@@H](C3)C[C@@H](C4)C5)cc2)NC1=O`: the pIC50 in [1] and in [2] was < 5.00 throughout.
`Cc1cc(NC(=O)Nc2cc(C(C)(C)C)nn2-c2ccc3ccccc3c2)ccc1Nc1ncnc2c1OC(C)(C)C(=O)N2`: the figures for the pIC50 (in series [1]; in series [2]; with BaF3 [3]) were 7.39, 6.61 and < 5.00, respectively.
Regarding `CC1(C)Oc2c(ncnc2Nc2ccc(NC(=O)Nc3cc(C(C)(C)C)nn3C3CCCCC3)cc2)NC1=O`, the pIC50 in series [1] was 6.46; in [2], 6.64; with BaF3 [3] it was 5.81.
Take `Cc1cc(NC(=O)Nc2cc(C(C)(C)C)nn2-c2cccc(F)c2)ccc1Nc1ncnc2c1OC(C)(C)C(=O)N2`: the pIC50 in series [1] was 7.89; in series [2], 7.85; in the series on BaF3 [3], 5.94.
On to `Cc1cc(NC(=O)Nc2cc(C(C)(C)C)nn2-c2ccc(C(F)(F)F)cc2)ccc1Nc1ncnc2c1OC(C)(C)C(=O)N2`, for which the pIC50 with BaF3 [4] was 7.89; with BaF3 [3] it was 7.07; with BaF3 [5] it was 8.70; in the series on BaF3 [6] it was 8.70; in the series with BaF3 [9], 8.70; with BaF3 [10], 8.00. Moreover, the pIC50 is 7.07 in the series with BaF3 [11], 8.52 with BaF3 [12] and 7.89 in “cells”. Besides, the IC50 at 3 days in “in vitro” was > 10000 nM.
Regarding `Cc1cc(NC(=O)Nc2cc(C3CC3)nn2-c2ccccc2)ccc1Nc1ncnc2c1OC(C)(C)C(=O)N2`, the pIC50 in series [1] is 7.64; in [2] it was 8.00; with BaF3 [3], 5.70.
As to `CCNC(=O)Nc1ccc(Nc2ncnc3c2OC(C)(C)C(=O)N3)cc1`, the pIC50 in series [1] and in [2] was < 5.00 each time.
Turning to `CC1(C)Oc2c(ncnc2Nc2ccc(NC(=O)Nc3ccc(F)c(F)c3)cc2)NC1=O`, the pIC50 in series [1] and in series [2] was < 5.00 each time.
In the case of `COc1cc(NC(=O)Nc2cc(C(C)(C)C)nn2-c2ccccc2)ccc1Nc1ncnc2c1OC(C)(C)C(=O)N2`, the pIC50 in [1] is 7.30; in [2], 6.91; in the series on BaF3 [3], 5.03.
Turning to `CC1(C)Oc2c(ncnc2Nc2ccc(NC(=O)Nc3cc(C(C)(C)C)nn3-c3ccccc3)c3ccccc23)NC1=O`, the pIC50 in series [1] is 7.06; in series [2], 7.06; in the series on BaF3 [3], 6.42.
For the compound `O=C(Nc1cnn2ccc(N3CCC[C@@H]3c3cc(F)ccc3F)nc12)N1CC[C@H](O)C1` [LAROTRECTINIB], the pIC50 is 6.26 in the series with BaF3 [4]; 7.96 in the series on BaF3 [5]; 9.00 with BaF3 [6]; 7.23 in the series on BaF3 [7]; 5.39 in the series on BaF3 [8]; 5.90 with BaF3 [9]. In addition, the pIC50 was 6.49 with BaF3 [10], 5.83 in the series with BaF3 [11], 6.23 in the series with BaF3 [12] and 7.96 in the series “cells”. Further, 3570 nM corresponded to half-maximal inhibition in the series “in vitro” (IC50 at 3 days).
As for `CC1(C)Oc2c(ncnc2Nc2ccc(NC(=O)Nc3ccc(C#N)cc3)cc2)NC1=O`, the pIC50 in [1] and in series [2] was < 5.00 in each case.
For the compound `Cc1cc(NC(=O)Nc2cc(C(C)(C)C)nn2-c2ccc(F)cc2)ccc1Nc1ncnc2c1OC(C)(C)C(=O)N2`, the pIC50 in series [1] is 7.52; in series [2], 7.92; in the series on BaF3 [3], 6.61.
For `CC(C)(C)NC(=O)Nc1ccc(Nc2ncnc3c2OC(C)(C)C(=O)N3)cc1`, the negative logarithm of the IC50 (pIC50) in series [1] and in series [2] was < 5.00 each time.
Turning to `Cc1cc(Nc2ncnc3c2OC(C)(C)C(=O)N3)ccc1NC(=O)Nc1cc(C(C)(C)C)nn1-c1ccccc1`, the pIC50 in series [1] was 6.90; in [2] it was 7.06; in the series with BaF3 [3], 5.22.
`Cn1nc(C(C)(C)C)cc1NC(=O)Nc1ccc(Nc2ncnc3c2OC(C)(C)C(=O)N3)cc1`: the pIC50 in [1] and in series [2] was < 5.00 in each case.
With `Cc1cc(NC(=O)Nc2cc(-c3ccccc3)nn2-c2ccccc2)ccc1Nc1ncnc2c1OC(C)(C)C(=O)N2`, the pIC50 in series [1] was 7.42; in series [2] it was 6.77; in the series with BaF3 [3], 5.72.
Take `CC1(C)Oc2c(ncnc2Nc2ccc(NC(=O)Nc3cccc(F)c3)cc2)NC1=O`: the pIC50 in series [1] and in series [2] was < 5.00 throughout.
For the compound `CC1(C)Oc2c(ncnc2Nc2ccc(NC(=O)NC3CCCCC3)cc2)NC1=O`, the pIC50 in [1] and in series [2] was < 5.00 in each case.
As for `Cc1cc(NC(=O)Nc2cc(C(C)(C)C)nn2-c2cccnc2)ccc1Nc1ncnc2c1OC(C)(C)C(=O)N2`, the pIC50 in series [1] is 7.85; in series [2], 7.66; with BaF3 [3], 6.15.
The matching figures for `CC1(C)Oc2c(ncnc2Nc2ccc(NC(=O)Nc3cc(C(C)(C)C)nn3-c3ccccc3)c(F)c2)NC1=O`: 7.09, 7.42 and 6.01.
On to `CC1(C)Oc2c(ncnc2Nc2ccc(NC(=O)Nc3cc(C(C)(C)C)on3)cc2)NC1=O`, for which the pIC50 was 6.81 in [1], 7.48 in series [2] and 5.42 in the series on BaF3 [3].
The matching figures for `CC1(C)Oc2c(ncnc2Nc2ccc(NC(=O)Nc3cc(C(C)(C)C)nn3C(C)(C)C)cc2)NC1=O`: 5.21, 5.85 and < 5.00.
As for `CSc1cc(Nc2ncnc3c2OC(C)(C)C(=O)N3)ccc1NC(=O)Nc1cc(C(C)(C)C)nn1-c1ccccc1`, the pIC50 is 7.05 in [1], 6.97 in series [2] and 6.64 in the series with BaF3 [3].
As for `Cc1cc(NC(=O)Nc2cc(C(C)(C)C)nn2-c2ccccc2)ccc1Nc1ncnc2c1OC(C)(C)C(=O)N2`, the pIC50 in series [1] was 7.89; in the series with BaF3 [4], 7.72; in the series on BaF3 [3], 7.29; in the series on BaF3 [5], 7.82; in the series with BaF3 [6] it was 8.30; in the series with BaF3 [7], 7.41. In addition, the negative-log IC50 (pIC50) in the series on BaF3 [8] is 6.82; in the series on BaF3 [9] it was 8.70; in the series on BaF3 [10], 7.47; in the series with BaF3 [11] it was 7.29; in the series “cells”, 7.68. Further, the IC50 at 3 days in “in vitro” was > 10000 nM.
As for `Cc1cc(NC(=O)Nc2cc(C(C)(C)C)nn2-c2ccc(OC(F)(F)F)cc2)ccc1Nc1ncnc2c1OC(C)(C)C(=O)N2`, the pIC50 in series [1] was 7.34; in series [2], 7.40; with BaF3 [3] it was 7.07.
The matching figures for `CC1(C)Oc2c(ncnc2Nc2ccc(NC(=O)Nc3cc(C(C)(C)C)nn3-c3ccccc3)cc2)NC1=O`: 7.46, 7.68 and 6.40.
With `COc1cc(Nc2ncnc3c2OC(C)(C)C(=O)N3)ccc1NC(=O)Nc1cc(C(C)(C)C)nn1-c1ccccc1`, the pIC50 in [1] is 7.42; in series [2], 8.00; in the series with BaF3 [3] it was 6.01.
